Starred links: 1 amine or outer side, 2 acyl side, 3 side chain; linkers in the order of their positions; H or OH if unused. Residues, ends and D or L forms follow the SMILES beside them. Groups on a side chain read outwards from the residue. *: point of attachment. γGlu = O=C(O)[C@H](CCC(=O)[*:2])N[*:1]; Palmitoyl = CCCCCCCCCCCCCCCC(=O)*
Assay: In vivo acute/dose response study of food intake in the HM2 system after SC dosing
Settings: 6 hours post dosing, male NMRI mice
Method: Animals: A total of seventy two (72) male NMRI mice 6-7 weeks old (approx. 25 g BW) at the time of arrival were obtained from Taconic (Denmark) and transferred to the Gubra test stables. Upon arrival the animals will be transferred into the HM2 cages and housed in groups of four. The animal room environment were controlled (targeted ranges: temperature 22 ± 2°C; relative humidity 50 ± 10%; light/dark cycle: 12 hours light, 12 hours dark, lights on from 6 AM to 6 PM. […] have ad libitum access to Altromin (Brogaarden, Denmark) and tap water.
Run-in period: Mice arrived at day -7. A minimum of 5-7 days of habituation to the system was allowed before study start. During these days, animals were handled daily to accustom them to the experimental paradigm.
Runs in the HM2 system: In total five runs were performed in the HM2 system. There were at least 4 days of washout between each run.
Acute effect of lipidated analogues: Mice were re-randomized and the acute effects of the lipidated compounds were tested in an acute setting. Mice were dosed in doses equimolar to the concentration of NMU found to be semi-efficacious.
Dose response study: Different doses of the analogues were tested in order to establish a dose response relationship. Mice were re-randomized and four different doses of the five lipidated analogues were tested over two different runs in the HM2 system and compared with NMU at […] and liraglutide at 0.05 µmol/kg.
Randomization and experimentation: Animals were randomized according to body weight the day of dosing and stratified into the following experimental groups based on mean cage weight (n=4-8): • Pilot (PD) study run 1 (dose finding of NMU): • 1: Vehicle (0.9% NaCl, pH ∼ 4.0 and 0.1% BSA) (n=4) • 2: Native human Neuromedin U (NMU-25), sc, 1 mg/kg (n=4) • 3: Native human Neuromedin U (NMU-25), sc, 3 mg/kg (n=4) • 4: Native human Neuromedin U (NMU-25), sc, 10 mg/kg (n=4) • 5: PYY3-36, sc 1 mg/kg (n=4) • Pilot (PD) study run 2 (dose finding of NMU): • 1: Vehicle (0.9% NaCl, pH ∼ 4.0 and 0.1% BSA) (n=4) • 2: Native human Neuromedin U (NMU-25), sc, 1 mg/kg (n=4) • 3: Native human Neuromedin U (NMU-25), sc, 3 mg/kg (n=4) • Acute effects of lipidated analogues: • 1: Vehicle (PBS + 0.1% BSA+ 5.4% DMSO) SC • 2: Liraglutide 0.2 mg/kg, sc, 0.05 pmol/kg (n=8) • 3: Human neuromedin U 25 (NMU), sc, 1 µmol/kg (n=8) • 5: SEQ ID NO 17, sc, 1 pmol/kg (n=8) • 6: SEQ ID NO 14, sc, 1 pmol/kg (n=8) • 7: SEQ ID NO 11, sc, 1 pmol/kg (n=8) • 8: SEQ ID NO 8, sc, 1 pmol/kg (n=8) • 9: SEQ ID NO 5, sc, 1 pmol/kg (n=8) • Dose response study run 1 • 1: Vehicle (0.9% NaCl, pH ∼ 4.1 and 0.1% BSA) (n=6) • 2: Liraglutide 0.2 mg/kg, sc, 0.05 pmol/kg (n=4) • 3: Human neuromedin U 25 (NMU), sc, 1 µmol/kg (n=5) • 8: SEQ ID NO 17, sc, 1 pmol/kg (n=4) • 9: SEQ ID NO 17, sc, 0.3 pmol/kg (n=5) • 10: SEQ ID NO 17, sc, 0.1 µmol/kg (n=5) • 11: SEQ ID NO 17, sc, 0.03 pmol/kg (n=5) • 12: SEQ ID NO 14, sc, 1 pmol/kg (n=4) • 13: SEQ ID NO 14, sc, 0.3 pmol/kg (n=5) • 14: SEQ ID NO 14, sc, 0.1 pmol/kg (n=5) • 15: SEQ ID NO 14, sc, 0.03 pmol/kg (n=5) • Dose response study run 2 • 1: Vehicle (0.9%NaCl, pH ∼ 4.0 and 0.1% BSA) (n=5) • 2: Liraglutide 0.2 mg/kg, sc, 0.05 pmol/kg (n=4) • 3: Human neuromedin U 25 (NMU), sc, 1 µmol/kg (n=4) • 4: SEQ ID NO 11, sc, 1 pmol/kg (n=4) • 5: SEQ ID NO 11, sc, 0.3 pmol/kg (n=5) • 6: SEQ ID NO 11, sc, 0.1 pmol/kg (n=5) • 7: SEQ ID NO 11, sc, 0.03 pmol/kg (n=5) • 8: SEQ ID NO 8, sc, 1 pmol/kg (n=4) • 9: SEQ ID NO 8, sc, 0.3 pmol/kg (n=5) • 10: SEQ ID NO 8, sc, 0.1 pmol/kg (n=5) • 11: SEQ ID NO 8, sc, 0.03 pmol/kg (n=5) • 12: SEQ ID NO 5, sc, 1 pmol/kg (n=4) • 13: SEQ ID NO 5, sc, 0.3 pmol/kg (n=5) • 14: SEQ ID NO 5, sc, 0.1 µmol/kg (n=5) • 15: SEQ ID NO 5, sc, 0.03 pmol/kg (n=5) Dosing: All dosing took place just prior to lights out in the afternoon. Doses was administered subcutaneously (sc) (dose volume 10 ml/kg), alternating the injection site from the left to the right side of the lower back and inguinal region, respectively. […]

| Structure (SMILES) | Percent food intake reduction 6 hours post SC dosing (0.03 µmol/kg) | Percent food intake reduction 6 hours post SC dosing (0.1 µmol/kg) | Percent food intake reduction 6 hours post SC dosing (0.3 µmol/kg) | Percent food intake reduction 6 hours post SC dosing (1.0 µmol/kg) |
| --- | --- | --- | --- | --- |
| CCCCCCCCCCCCCCCC(=O)N[C@@H](CCC(=O)NCCCC[C@H](NC(=O)[C@H](CCC(N)=O)NC(=O)[C@H](CO)NC(=O)[C@H](C)NC(=O)[C@H](Cc1ccccc1)NC(=O)[C@@H]1CCCN1C(=O)[C@H](CO)NC(=O)[C@H](CCC(N)=O)NC(=O)[C@H](Cc1ccccc1)NC(=O)[C@H](CCC(=O)O)NC(=O)[C@H](CCC(=O)O)NC(=O)[C@H](CC(=O)O)NC(=O)[C@@H](NC(=O)[C@H](CCCNC(=N)N)NC(=O)[C@@H](N)Cc1ccccc1)C(C)C)C(=O)N[C@@H](CCCNC(=N)N)C(=O)NCC(=O)N[C@@H](Cc1ccc(O)cc1)C(=O)N[C@@H](Cc1ccccc1)C(=O)N[C@@H](CC(C)C)C(=O)N[C@@H](Cc1ccccc1)C(=O)N[C@@H](CCCNC(=N)N)C(=O)N1CCC[C@H]1C(=O)N[C@@H](CCCNC(=N)N)C(=O)N[C@@H](CC(N)=O)C(N)=O)C(=O)O [SEQ ID NO 5] (H-FRVDEEFQSPFASQK([γGlu-Palmitoyl])RGYFLFRPRN-NH2) | 41% | 41% | 61% | 76% |
| CCCCCCCCCCCCCCCC(=O)N[C@@H](CCC(=O)NCCCC[C@H](NC(=O)[C@H](C)NC(=O)[C@H](Cc1ccccc1)NC(=O)[C@@H]1CCCN1C(=O)[C@H](CO)NC(=O)[C@H](CCC(N)=O)NC(=O)[C@H](Cc1ccccc1)NC(=O)[C@H](CCC(=O)O)NC(=O)[C@H](CCC(=O)O)NC(=O)[C@H](CC(=O)O)NC(=O)[C@@H](NC(=O)[C@H](CCCNC(=N)N)NC(=O)[C@@H](N)Cc1ccccc1)C(C)C)C(=O)N[C@@H](CCC(N)=O)C(=O)N[C@@H](CO)C(=O)N[C@@H](CCCNC(=N)N)C(=O)NCC(=O)N[C@@H](Cc1ccc(O)cc1)C(=O)N[C@@H](Cc1ccccc1)C(=O)N[C@@H](CC(C)C)C(=O)N[C@@H](Cc1ccccc1)C(=O)N[C@@H](CCCNC(=N)N)C(=O)N1CCC[C@H]1C(=O)N[C@@H](CCCNC(=N)N)C(=O)N[C@@H](CC(N)=O)C(N)=O)C(=O)O [SEQ ID NO 8] (H-FRVDEEFQSPFAK([γGlu-Palmitoyl])QSRGYFLFRPRN-NH2) | 25% | 55% | 46% | 90% |
| CCCCCCCCCCCCCCCC(=O)N[C@@H](CCC(=O)NCCCC[C@H](NC(=O)[C@H](CCC(=O)O)NC(=O)[C@H](CC(=O)O)NC(=O)[C@@H](NC(=O)[C@H](CCCNC(=N)N)NC(=O)[C@@H](N)Cc1ccccc1)C(C)C)C(=O)N[C@@H](Cc1ccccc1)C(=O)N[C@@H](CCC(N)=O)C(=O)N[C@@H](CO)C(=O)N1CCC[C@H]1C(=O)N[C@@H](Cc1ccccc1)C(=O)N[C@@H](C)C(=O)N[C@@H](CO)C(=O)N[C@@H](CCC(N)=O)C(=O)N[C@@H](CO)C(=O)N[C@@H](CCCNC(=N)N)C(=O)NCC(=O)N[C@@H](Cc1ccc(O)cc1)C(=O)N[C@@H](Cc1ccccc1)C(=O)N[C@@H](CC(C)C)C(=O)N[C@@H](Cc1ccccc1)C(=O)N[C@@H](CCCNC(=N)N)C(=O)N1CCC[C@H]1C(=O)N[C@@H](CCCNC(=N)N)C(=O)N[C@@H](CC(N)=O)C(N)=O)C(=O)O [SEQ ID NO 14] (H-FRVDEK([γGlu-Palmitoyl])FQSPFASQSRGYFLFRPRN-NH2) | 5% | 31% | 79% | 89% |
| CCCCCCCCCCCCCCCC(=O)N[C@@H](CCC(=O)NCCCC[C@H](NC(=O)[C@@H](NC(=O)[C@H](CCCNC(=N)N)NC(=O)[C@@H](N)Cc1ccccc1)C(C)C)C(=O)N[C@@H](CCC(=O)O)C(=O)N[C@@H](CCC(=O)O)C(=O)N[C@@H](Cc1ccccc1)C(=O)N[C@@H](CCC(N)=O)C(=O)N[C@@H](CO)C(=O)N1CCC[C@H]1C(=O)N[C@@H](Cc1ccccc1)C(=O)N[C@@H](C)C(=O)N[C@@H](CO)C(=O)N[C@@H](CCC(N)=O)C(=O)N[C@@H](CO)C(=O)N[C@@H](CCCNC(=N)N)C(=O)NCC(=O)N[C@@H](Cc1ccc(O)cc1)C(=O)N[C@@H](Cc1ccccc1)C(=O)N[C@@H](CC(C)C)C(=O)N[C@@H](Cc1ccccc1)C(=O)N[C@@H](CCCNC(=N)N)C(=O)N1CCC[C@H]1C(=O)N[C@@H](CCCNC(=N)N)C(=O)N[C@@H](CC(N)=O)C(N)=O)C(=O)O [SEQ ID NO 17] (H-FRVK([γGlu-Palmitoyl])EEFQSPFASQSRGYFLFRPRN-NH2) | 20% | 43% | 64% | 78% |

— EP2842965A1, “Neuromedin U analogs comprising serum albumin binding amino acid residue” (Gubra ApS, priority 2013, dated 2015)
